Measurements as given in ChEMBL document CHEMBL2396533, “Γ-aminobutyric acid(C) (GABAC) selective antagonists derived from the bioisosteric modification of 4-aminocyclopent-1-enecarboxylic acid: amides and hydroxamates” (J Med Chem, 2013).
Activity calls are given as the source filed them. The calls are words filed in the database; no cut-off is given here.

Legend:
[1] = biological target: T1, Gamma-aminobutyric acid receptor subunit rho-1 (Homo sapiens, UniProt P24046); test: Antagonist activity at human recombinant GABAA rho1 receptor expressed in Xenopus laevis assessed as inhibition of GABA-induced chloride current production after 2 to 5 days by two-electrode voltage-clamp electrophysiological assay
T1 sequence (P24046 whole entry): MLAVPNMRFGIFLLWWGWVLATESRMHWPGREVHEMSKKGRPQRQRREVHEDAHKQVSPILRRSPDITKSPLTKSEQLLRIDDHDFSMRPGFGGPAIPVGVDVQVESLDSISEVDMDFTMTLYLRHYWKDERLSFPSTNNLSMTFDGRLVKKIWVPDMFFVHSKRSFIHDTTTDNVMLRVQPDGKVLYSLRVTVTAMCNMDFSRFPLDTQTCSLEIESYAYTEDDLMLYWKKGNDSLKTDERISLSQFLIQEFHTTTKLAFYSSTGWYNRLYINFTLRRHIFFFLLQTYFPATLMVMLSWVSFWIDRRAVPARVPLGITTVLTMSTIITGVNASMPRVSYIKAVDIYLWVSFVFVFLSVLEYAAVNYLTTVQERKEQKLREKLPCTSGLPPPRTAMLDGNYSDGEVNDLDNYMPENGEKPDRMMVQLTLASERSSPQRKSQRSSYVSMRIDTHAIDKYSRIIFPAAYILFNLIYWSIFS

[2] = biological target: T2, GABA-A receptor; alpha-1/beta-2/gamma-2 (Homo sapiens) (UniProt P14867+P47870+P18507); test: Agonist activity at human recombinant GABAAalpha1beta2gamma2L receptor expressed in Xenopus laevis assessed as induction of chloride current production at 300 uM after 2 to 5 days by two-electrode voltage-clamp electrophysiological assay relative to GABA
[3] = biological target: T2, GABA-A receptor; alpha-1/beta-2/gamma-2 (Homo sapiens); test: Antagonist activity at human recombinant GABAAalpha1beta2gamma2L receptor expressed in Xenopus laevis assessed as inhibition of GABA-induced chloride current production at 300 uM after 2 to 5 days by two-electrode voltage-clamp electrophysiological assay relative to control
[4] = biological target: T1, Gamma-aminobutyric acid receptor subunit rho-1; test: Antagonist activity at human recombinant GABAA rho1 receptor expressed in Xenopus laevis assessed as inhibition of GABA-induced chloride current production at 300 uM after 2 to 5 days by two-electrode voltage-clamp electrophysiological assay relative to control

SMILES	IC50 [1] [µM]	Activity [2]	inhibition [3]	inhibition [4] [%]
CNC(=O)C1=CCC(N)C1 (racemic)	408	inactive	inactive	
NC1CC=C(C(=O)NO)C1 (racemic)	12.9	4.3%		
C=CCONC(=O)C1=CCC(N)C1 (racemic)	115	1.7%		
NC(=O)C1=CCC(N)C1 (racemic)	9.6		23.3%	
CCCCCNC(=O)C1=CCC(N)C1 (racemic)		inactive	inactive	20.5
CCONC(=O)C1=CCC(N)C1 (racemic)	153	2.5%		
CONC(=O)C1=CCC(N)C1 (racemic)	81.5	6.3%		
Cc1ccc(NC(=O)C2=CCC(N)C2)cc1 (racemic)		inactive	inactive	11.3
CCCNC(=O)C1=CCC(N)C1 (racemic)	570	inactive	inactive	
NC1CC=C(C(=O)O)C1 (racemic)	6.6	59.7%		
